Measured values: US20080226596A1, “Therapeutic compositions and methods useful in treating hepatitis” (priority 2006, published 2008)
Where “and” joins values, the source holds several entries; their conditions need not be identical. Equal entries are not always repeated.

Legend:
NB4 cells [1] = test: NB4 cell cycle analysis; type: cell-based, human; conditions: 3 days; sodium stibogluconate 250 μg/ml, ATRA 1 μM
Description: The cell cycle was analyzed by flow cytometry after 3 days of culture of NB4 cells in the absence or presence of sodium stibogluconate (250 µg/ml) or ATRA (1 μM). Briefly, the cells were fixed in cold ethanol and incubated for 30 minutes at 4° C. in the dark with a solution of 50 […], 1 mg/ml RNase and 0.1% NP-40. Analysis was performed immediately after staining using the CELLFIT program (Becton Dickinson, Mountain View, Calif.).

U937 cells = test: U937 differentiation, NBT reduction; type: cell-based, human; conditions: day 6; sodium stibogluconate 400 μg/ml, GM-CSF 25 ng/ml
Description: (§1) Differentiation of AML cell lines was assessed by their ability to produce superoxide as measured by reduction of NBT to formazan and by analysis of expression of CD11b surface marker by flow cytometry. For NBT reduction, each cell suspension was mixed with an equal volume of solution containing 1 mg/ml of NBT (Sigma) and 2.5 µg/ml of TPA for 30 minutes at 37° C. After incubation, cells containing the purple formazan deposits and cells devoid of NBT-reducing activity (white cells) in each sample were determined by counting 200 cells under microscope. Data is expressed as a percentage based on the following ratio: purple cells/purple+white cells. For analysis of cell surface antigens, cells were exposed to phycoerythrin (PE)-conjugated murine anti-human CD11b (DAKO Corp., Carpinteria, Calif.). Analysis of fluorescence was performed on a FACScan flow cytometer (Beckton Dickinson, Mountain View, Calif.).

HL-60 cells = test: HL-60 differentiation, NBT reduction; type: cell-based, human; conditions: day 6; sodium stibogluconate 400 μg/ml, GM-CSF 25 ng/ml
Description: as §1

SHP-1 [2] = target: T1, SHP-1 (Mus musculus, UniProt P29351); test: In vitro PTPase assay, recombinant GST/SHP-1; type: biochemical
T1 construct: made in house
Description: (§2) In vitro PTPase activities were measured using the commercial protein tyrosine phosphatase assay kit (Upstate Biotechnology, Inc. (“UBI”)) following established procedure known to one of skill in the art. This assay measures the in vitro dephosphorylation of a synthetic phosphotyrosine peptide of the sequence Arg-Arg-Leu-Ile-Glu-Asp-Ala-Gle-Tyr-Ala-Ala-Arg-Gly, wherein the tyrosine is phosphorylated (SEQ ID NO: 3). Briefly, 0.01 µg of GST/PTPase fusion proteins was incubated in 50 μL of Tris buffer (10 mM Tris, pH 7.4) containing different concentrations of inhibitors or chemicals (0-1,000 μg/ml) at 22° C. for 10 minutes, followed by addition of 0.2 mM of the phosphotyrosine peptide and incubation at 22° C. for 18 hours. 100 μL of Malachite Green solution was added and incubated for 5 minutes, and the absorbance at 660 nm was measured after 5 minutes.
(§3) In vitro PTPase assays were used to determine the effects of compounds on recombinant PTPases, following established procedures using a synthetic phosphotyrosine peptide or DiFMUP as the substrate (Pathak et al., J. Imumol. 167, 3391 (2001)). Briefly, individual PTPases (0.1 µg/reaction) in 50 μL of PTPase buffer (50 mM Tris, pH 7.4) were incubated at 22° C. for 10 minutes or as indicated in the absence or presence of inhibitory compounds. Substrates (0.2 mM phosphotyrosine peptide) were then added and allowed to react at 22° C. for 18 hrs. PTPase activity of individual reactions was measured by adding 100 µL of malachite green solution (UBI) and then quantifying the amounts of free phosphate cleaved by the PTPase from the peptide substrate by spectrometry (OD660 nm). PTPase assays using DiFMUP as a substrate were conducted following a previously described procedure (Matter, et al., Biochem. Biophys. Res. Comm. 283, 1061 (2001)). Relative PTPase activities were calculated based on the formula: (PTPase activity in the presence of an inhibitory compound/PTPase activity in the absence of the compound)× 100%. To assess the reversibility of PTPase inhibition, GST fusion proteins of the PTPases bound on glutathione beads (Pharmacia) were pre-incubated with cold Tris buffer (50 mM Tris, pH 7.0) or Tris buffer containing the inhibitor at 4° C. for 30 minutes. The beads were then washed three times in cold Tris buffer or not washed prior to subjecting to in vitro PTPase assays.
(§4) In vitro PTPase assays were used to determine the effects of levamisole (Sigma), pentamidine (American Pharmaceutical Partners, Inc.), and ketoconazole (Sigma) on recombinant PTPases, following established procedures (Pathak et al., J. Imumol. 167, 3391 (2001); Pathak et al., Leukemia 16, 2285 (2002), Yi et al., J. Immunol. 169, 5978 (2002)) using a synthetic phosphotyrosine peptide or DiFMUP as the substrate as detailed above in section I.A.2.

SHP-1 [3] = target: T1, SHP-1; test: Reversibility of SHP-1 inhibition (washing of bead-bound GST/SHP-1); type: biochemical; conditions: pre-incubated 4° C. 30 minutes, washed 3 times
Text: The beads were then either subjected to in vitro PTPase assays or washed 3 times in Tris buffer then subjected to in vitro PTPase assays.

PRL-3 = target: T2, PRL-3 (Homo sapiens, UniProt O75365); test: In vitro PTPase assay, recombinant PRL-3, DiFMUP substrate; type: biochemical; conditions: comparable conditions
T2 construct: GST (N); made in house; host or cells: DHSa (DH5a) bacteria
Description: as §3

GSTm8 = test: In vitro PTPase assay, GSTm8; type: biochemical; conditions: 3-4 μg/ml or 10-100 μg/ml
Text: as §4

MKP1 = target: T3, MKP1 (Homo sapiens, UniProt P28562); test: In vitro PTPase assay, GST/MKP1; type: biochemical
T3 construct: GST (N); made in house; host or cells: DH5a bacteria
T3 sequence (P28562 1-367): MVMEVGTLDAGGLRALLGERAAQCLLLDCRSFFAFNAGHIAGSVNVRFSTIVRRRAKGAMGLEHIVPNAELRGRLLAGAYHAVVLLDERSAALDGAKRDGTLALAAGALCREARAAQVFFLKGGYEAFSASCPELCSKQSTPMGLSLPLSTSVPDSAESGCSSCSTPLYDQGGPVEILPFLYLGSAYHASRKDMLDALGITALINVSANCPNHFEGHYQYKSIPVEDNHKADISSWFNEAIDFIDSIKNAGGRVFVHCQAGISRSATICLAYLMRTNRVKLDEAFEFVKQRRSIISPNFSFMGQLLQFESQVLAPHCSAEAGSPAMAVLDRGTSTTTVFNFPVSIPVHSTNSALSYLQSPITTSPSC
Description: as §2, §4

PTP1B = target: T4, PTP1B (Homo sapiens, UniProt P18031); test: In vitro PTPase assay, GST/PTP1B; type: biochemical; conditions: 1-1,000 μg/ml
T4 construct: GST; purchased Upstate Biotechnology Inc. (Lake Placid, N.Y.)
Description: as §2, §4

[4] = system: Jak2/Stat5 tyrosine phosphorylation; test: IL-3-induced Jak2/Stat5 tyrosine phosphorylation in Baf3 cells; type: cell-based, murine; conditions: potassium antimonyl tartrate
Description: For induction of cellular protein phosphorylation by sodium stibogluconate or pervanadate, Baf3 cells were incubated in 0.1% FCS-RPMI 1640 medium at 37° C. for 16 hours. The cells were then washed twice in RPMI 1640 medium and incubated with sodium stibogluconate or pervanandate (0.1 mM) for various times prior to termination by lysing cells in cold lysis buffer (50 mM Tris, pH 7.4; 150 mM NaCl; 0.2 mM Na3VO4; 20 mm NaF; 1% Nonidet P-40; 2 mM PMSF; 20 µg/ml of Aprotinin and 1 mM of sodium molybdic acid). To determine the effect of sodium stibogluconate or potassium antimonyl tartrate on IL-3-induced Jak/Stat phosphorylation, Baf3 cells were deprived of the growth factor for 16 hours in 0.1% FCS RPMI 1640 medium and then incubated with or without sodium stibogluconate or potassium antimonyl tartrate for 10 minutes. IL-3 was next added to the cell suspension and incubated for various times. The Cells were then harvested and lysed in cold lysis buffer at 4° C. for 45 minutes. Total cell lysates (TCL) were separated in SDS-PAGE gels, blotted onto nitrocellulose membrane (Schleicher & Schuell), probed with specific antibodies and detected using an enhanced chemiluminescence kit (ECL, Amersham, Arlington Heights, Ill.).

Baf3 cells = test: Baf3 cell proliferation assay; type: cell-based, murine
Description: The murine hematopoietic cell line Baf3 was maintained in RPMI 1640 medium supplemented with 10% fetal calf serum (FCS) and murine IL-3 (20 units/ml) as described previously in Damen et al., J. Biol. Chem. 270, 23402 (1995). Human myeloid cell line TF-1 was maintained in RPMI 1640 supplemented with 10% FCS and 40 ng/ml of recombinant human GM-CSF as described previously in Thomassen et al., Clin. Immunol. 95, 85 (2000). For cell proliferation assays, cells were washed in 10% FCS medium twice, resuspended in 10% FCS medium, incubated at 37° C. for 16 hours, and then cultured at 37° C. in 10% FCS medium containing various amounts of cytokines, sodium stibogluconate, or potassium antimonyl tartrate for 3-6 days as indicated. The cell numbers in proliferation assays were determined by an MTT assay or by microscopic cell counting as indicated.

NB4 cells [5] = test: NB4 differentiation, NBT reduction; type: cell-based, human; conditions: comparable conditions
Description: as §1

T1 sequence (P29351 whole entry): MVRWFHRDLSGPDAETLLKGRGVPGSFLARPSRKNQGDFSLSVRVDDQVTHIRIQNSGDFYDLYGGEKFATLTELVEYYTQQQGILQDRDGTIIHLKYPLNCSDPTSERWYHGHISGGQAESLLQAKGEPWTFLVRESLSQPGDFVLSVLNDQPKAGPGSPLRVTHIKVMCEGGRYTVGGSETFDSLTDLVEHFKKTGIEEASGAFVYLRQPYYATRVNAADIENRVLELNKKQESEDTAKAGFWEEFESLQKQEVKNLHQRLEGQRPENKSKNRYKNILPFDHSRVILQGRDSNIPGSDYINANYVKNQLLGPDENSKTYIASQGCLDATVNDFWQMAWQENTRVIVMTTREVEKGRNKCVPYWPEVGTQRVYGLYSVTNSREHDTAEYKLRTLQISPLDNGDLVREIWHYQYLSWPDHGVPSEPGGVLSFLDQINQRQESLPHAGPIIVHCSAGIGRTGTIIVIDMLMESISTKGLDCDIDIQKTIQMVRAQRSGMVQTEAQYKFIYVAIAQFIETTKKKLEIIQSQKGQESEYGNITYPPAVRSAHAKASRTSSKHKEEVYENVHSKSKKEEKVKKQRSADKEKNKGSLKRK
T2 sequence (O75365 whole entry): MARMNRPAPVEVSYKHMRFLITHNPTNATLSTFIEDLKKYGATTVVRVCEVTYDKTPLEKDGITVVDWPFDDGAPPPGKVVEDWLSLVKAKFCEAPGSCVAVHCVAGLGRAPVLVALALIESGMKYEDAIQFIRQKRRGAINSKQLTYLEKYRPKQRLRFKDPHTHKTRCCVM
T4 sequence (P18031 whole entry, species assumed): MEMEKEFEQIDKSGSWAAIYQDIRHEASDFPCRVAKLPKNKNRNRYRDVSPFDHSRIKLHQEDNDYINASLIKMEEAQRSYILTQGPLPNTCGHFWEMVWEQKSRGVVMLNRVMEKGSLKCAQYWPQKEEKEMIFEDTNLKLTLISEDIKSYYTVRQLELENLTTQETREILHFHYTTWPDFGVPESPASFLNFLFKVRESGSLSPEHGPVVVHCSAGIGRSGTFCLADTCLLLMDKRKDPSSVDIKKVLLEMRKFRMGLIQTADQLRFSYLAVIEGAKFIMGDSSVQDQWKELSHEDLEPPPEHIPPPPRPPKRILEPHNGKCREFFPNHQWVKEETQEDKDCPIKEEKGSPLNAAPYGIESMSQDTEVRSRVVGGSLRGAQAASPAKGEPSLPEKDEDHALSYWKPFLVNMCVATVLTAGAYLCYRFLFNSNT

Compound: CC1=C(/C=C/C(C)=C/C=C/C(C)=C/C(=O)O)C(C)(C)CCC1 [ATRA, All-trans-retinoic acid]
- NB4 cell cycle effect (NB4 cells [1]): arrested at G1 phase
- NBT-positive (differentiated) U937 cells (U937 cells): 72% and 73%
- NBT-positive (differentiated) HL-60 cells (HL-60 cells): 90%

Compound: Cc1ccc(C(=O)Nc2ccc(S(=O)(=O)O)c3cc(S(=O)(=O)O)cc(S(=O)(=O)O)c23)cc1NC(=O)c1cccc(NC(=O)Nc2cccc(C(=O)Nc3cc(C(=O)Nc4ccc(S(=O)(=O)O)c5cc(S(=O)(=O)O)cc(S(=O)(=O)O)c45)ccc3C)c2)c1 [Suramin]
- inhibition of SHP-1 compared with sodium stibogluconate (SHP-1 [2]; under comparable conditions): less effective
- inhibition of GST/SHP-1 after washing (SHP-1 [3]): almost completely removed by the washing process
- inhibition of PRL-3 with DiFMUP substrate (PRL-3): less effective than sodium stibogluconate

Compound: c1ccc([C@H]2CN3CCSC3=N2)cc1 [levamisole]
- inhibitory activity against GSTm8 (GSTm8): no obvious inhibitory activity
- inhibitory activity against SHP-1 (SHP-1 [2]; 3-4 μg/ml or 10-100 μg/ml): no obvious inhibitory activity
- inhibition of MKP1 (MKP1): substantial inhibition

Compound: O.O.O.O=C([O-])[C@H]([O-])[C@@H]([O-])C(=O)[O-].O=C([O-])[C@H]([O-])[C@@H]([O-])C(=O)[O-].[K+].[K+].[Sb+3].[Sb+3] [potassium antimonyl tartrate]
- inhibition of PTP1B (PTP1B): no detectable inhibition
- inhibition of SHP-1 (SHP-1 [2]; 1-1,000 μg/ml): no detectable inhibition
- IL-3-induced Stat5 phosphorylation [4]: failed to enhance IL-3-induced Stat5 phosphorylation
- toxicity against Baf3 cells (Baf3 cells): marked toxicity against Baf3 cells
- IL-3-induced proliferation of Baf3 cells (Baf3 cells; IL-3 10 units/ml, three days): failed to enhance

Compound: [Na+].[Na+].[Na+].[O]=[V]([O-])([O-])[O-] [sodium orthovanadate]
- inhibition of PRL-3 with DiFMUP substrate (PRL-3): less effective than sodium stibogluconate

Compound: GM-CSF: recombinant human GM-CSF
- NBT-positive (differentiated) U937 cells (U937 cells): 8-10%
- effect of GM-CSF on NB4 differentiation (NB4 cells [5]): no detectable effect
- NBT-positive (differentiated) HL-60 cells (HL-60 cells): 8-10%
